Measurements from ChEMBL document CHEMBL5331104, “Discovery of BRD4-HDAC Dual Inhibitors with Improved Fungal Selectivity and Potent Synergistic Antifungal Activity against Fluconazole-Resistant Candida albicans” (J Med Chem, 2023).
Converted amounts (≈) assume the structure as drawn.

What was measured:
Histone deacetylase = experiment: Inhibition of total HDAC in human HUVEC cells using Boc-Lys(Ac)-AMC as substrate preincubated for 12 hrs followed by substrate addition measured after 6 hrs by microtiter plate reader analysis; type: cell-based
Cryptococcus neoformans = experiment: Antifungal activity against Cryptococcus neoformans H99 assessed as fungal growth inhibition incubated for 24 hrs by broth dilution method; type: functional
Candida albicans [1] = experiment: Antifungal activity against Candida albicans SC5314 assessed as fungal growth inhibition incubated for 24 hrs by broth dilution method; type: functional
HL-60 = experiment: Antiproliferative activity against human HL-60 cells incubated for 48 hrs by CCK8 assay; type: functional, cell-based; conditions: HL-60, 48 h
Candida albicans [2] = experiment: microbe, parasite or virus in culture; type: functional; conditions: 0304103, time 24 hrs
Description: Synergetic antifungal activity against Candida albicans 0304103 assessed as microbial growth inhibition incubated for 24 hrs in the presence of fluconazole by checkerboard microdilution method

Histone deacetylase 1 = Histone deacetylase 1 (Homo sapiens, UniProt Q13547); experiment: Inhibition of full-length recombinant human HDAC1 (1 to 482 residues) expressed in baculovirus infected insect cells using […] as substrate incubated for 30 mins by fluorescence based analysis; parameters: species or system Insect cell
Sequence of Histone deacetylase 1 (Q13547 whole entry, the tested form may be a part): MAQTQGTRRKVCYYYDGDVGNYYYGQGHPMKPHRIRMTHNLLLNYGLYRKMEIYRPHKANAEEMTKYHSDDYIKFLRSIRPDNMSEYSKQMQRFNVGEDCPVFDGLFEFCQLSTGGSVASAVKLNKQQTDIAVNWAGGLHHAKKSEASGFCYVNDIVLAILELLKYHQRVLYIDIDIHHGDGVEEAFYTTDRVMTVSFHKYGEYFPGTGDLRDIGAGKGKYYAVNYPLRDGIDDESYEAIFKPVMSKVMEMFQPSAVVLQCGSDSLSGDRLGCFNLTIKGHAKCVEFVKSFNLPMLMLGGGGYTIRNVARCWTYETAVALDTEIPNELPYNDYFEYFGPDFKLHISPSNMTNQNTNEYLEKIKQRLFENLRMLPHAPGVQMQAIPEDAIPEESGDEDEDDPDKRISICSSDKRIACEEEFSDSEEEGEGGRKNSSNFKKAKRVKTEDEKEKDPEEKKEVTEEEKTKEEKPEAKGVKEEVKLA

K562 = experiment: Antiproliferative activity against human K562 cells incubated for 48 hrs by CCK8 assay; type: functional, cell-based; conditions: K562, 48 h
HEL = experiment: Antiproliferative activity against human HEL cells incubated for 48 hrs by CCK8 assay; type: functional, cell-based
Candida albicans [3] = experiment: microbe, parasite or virus in culture; type: functional; conditions: 0304103
Description: Antifungal activity against Candida albicans 0304103 assessed as microbial growth inhibition

Candida albicans [4] = type: functional, 0304103; conditions: time 24 hrs
Description: Synergetic antifungal activity against Candida albicans 0304103 assessed as fractional inhibitory concentration index incubated for 24 hrs in the presence of fluconazole by checkerboard microdilution method

in vitro = conditions: human, HUVEC cells
Description: Cytotoxicity against HUVECs assessed as inhibition of cell growth incubated for 48 hrs by CCK8 assay

Row | SMILES | IC50 (Histone deacetylase) [µM] | MIC80 (Cryptococcus neoformans) [µg/mL] | MIC80 (Candida albicans [1]) [µg/mL] | IC50 (HL-60) [µM] | MIC80 (Candida albicans [2]) [µg/mL] | IC50 (Histone deacetylase 1) [µM] | IC50 (K562) [µM] | IC50 (HEL) [µM] | MIC80 (Candida albicans [3]) [µg/mL] | fractional inhibitory concentration index (FICI) (Candida albicans [4]) | IC50 at 48 h (in vitro) [µM]
1 | Cc1nnc2n1-c1ccccc1C(c1ccccc1)=N[C@H]2CC(=O)Nc1ccc(C(=O)NO)cc1 | 0.065 | 16 (≈ 34.3 µM) | > 64 | 1.7 | 4 (≈ 8.57 µM) | 0.062 | 3.3 | > 10 | > 64 | 0.094 | 25
2 | Cc1nnc2n1-c1ccccc1C(c1ccc(Cl)cc1)=N[C@H]2CC(=O)NCc1ccc(C(=O)NO)cc1 | 2.7 | 32 (≈ 62.1 µM) | > 64 | 7.1 | 16 (≈ 31.1 µM) | 0.56 | > 10 | > 10 | > 64 | 0.28 | 23
3 | Cc1ccc(C2=N[C@@H](CC(=O)NCc3ccc(C(=O)NO)cc3)c3nnc(C)n3-c3ccccc32)cc1 | 5.8 | 32 (≈ 64.7 µM) | > 64 | > 10 | 8 (≈ 16.2 µM) | 0.89 | > 10 | 7 | > 64 | 0.14 | 20
4 | Cc1nnc2n1-c1sc3c(c1C(c1ccc(Cl)cc1)=N[C@H]2CC(=O)Nc1ccc(C(=O)NO)cc1)CCCC3 | 0.047 | 4 (≈ 7.13 µM) | > 64 | 0.31 | 4 (≈ 7.13 µM) | 0.72 | 0.41 | 0.29 | > 64 | 0.078 | 2.6
5 | Cc1nnc2n1-c1ccc(Cl)cc1C(c1ccccc1Cl)=N[C@H]2CC(=O)Nc1ccc(/C=C/C(=O)NO)cc1 | 0.035 | 8 (≈ 14.2 µM) | > 64 | 4.2 | 4 (≈ 7.12 µM) | 1.3 | 3.1 | 8.3 | > 64 | 0.07 | 7.3
6 | Cc1ccc(C2=N[C@@H](CC(=O)Nc3ccc(CC(=O)NO)cc3)c3nnc(C)n3-c3ccccc32)cc1 | 3.8 | 32 (≈ 64.7 µM) | > 64 | 5.1 | 8 (≈ 16.2 µM) | 2.9 | > 10 | > 10 | > 64 | 0.14 | 33
7 | Cc1ccc(C2=N[C@@H](CC(=O)Nc3ccc(/C=C/C(=O)NO)cc3)c3nnc(C)n3-c3ccccc32)cc1 | 0.63 | 8 (≈ 15.8 µM) | > 64 | 4.2 | 4 (≈ 7.9 µM) | 0.18 | 1.4 | 9 | > 64 | 0.094 | 14
8 | Cc1nnc2n1-c1ccc(Cl)cc1C(c1ccccc1Cl)=N[C@H]2CC(=O)Nc1ccc(CC(=O)NO)cc1 | 4.4 | 16 (≈ 29.1 µM) | > 64 | 9.7 | 8 (≈ 14.6 µM) | 1.1 | 8 | > 10 | > 64 | 0.14 | 19
9 | Cc1nnc2n1-c1ccccc1C(c1ccccc1)=N[C@H]2CC(=O)Nc1ccc(CC(=O)NO)cc1 | 6.5 | 32 (≈ 66.6 µM) | > 64 | 4.4 | 8 (≈ 16.6 µM) | 0.73 | > 10 | > 10 | > 64 | 0.19 | 24
